Test systems include ACHN renal; EKVX NSCLC; HCT-15 colon; HOP-62 NSCLC; HOP-92 NSCLC; HS 578T breast; IGROV1 ovarian; LOX IMVI melanoma; MDA-MB-231 breast; NCI-H226 lung; NCI-H23 lung; OVCAR-4 ovarian; OVCAR-8 ovarian; RXF 393 renal; SK-MEL-2 melanoma; SK-MEL-28 melanoma; SN12C renal; SR leukemia; T-47D breast; TK-10 renal.
What all share (assay): DTP human tumour cell line panel, 48 h

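Method: 48-hour compound exposure of cells in 96-well plates, five concentrations, linear interpolation of endpoints. TGI is the concentration that stops growth completely.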

As to `CCCC(=O)Nc1cc(/C=C/C(=O)N2CC(CCl)c3c2cc(O)c2[nH]cc(C)c32)n(C)c1` (stereo not given), the TGI was under 0.025 nM with ACHN renal; 2.93 nM in the assay with EKVX NSCLC; over 196 nM in the assay with HCT-15 colon; under 0.025 nM with HOP-62 NSCLC; under 0.025 nM in the assay on HOP-92 NSCLC; 0.0635 nM with HS 578T breast. For the same compound, the concentration for total growth inhibition (TGI) with IGROV1 ovarian was over 250 nM; with LOX IMVI melanoma, 16.3 nM; in the assay with MDA-MB-231 breast, 34.4 nM; with NCI-H226 lung it was 0.04 nM; in the assay on NCI-H23 lung, under 0.025 nM; in the assay on OVCAR-4 ovarian it was 38 nM. Further, the TGI with OVCAR-8 ovarian is 0.532 nM; in the assay on RXF 393 renal, under 0.025 nM; with SK-MEL-2 melanoma it was under 0.025 nM; in the assay on SK-MEL-28 melanoma, over 250 nM; in the assay with SN12C renal, 0.528 nM; in the assay on SR leukemia, over 140 nM. Also, the TGI is 8.84 nM in the assay on T-47D breast and under 0.025 nM with TK-10 renal.
